According to patent US12162934B2, “Gremlin-1 antagonist for the prevention and treatment of cancer” (UCB BIOPHARMA SRL, priority 2018, dated 2024):

Key:
[1] = target: T1, rhGremlin-1 (Homo sapiens, UniProt O60565); test: SMAD phosphorylation assay: restoration of p-SMAD signalling, lung fibroblasts from idiopathic pulmonary fibrosis patients; assay type: cell-based
T1 sequence (O60565 25-184): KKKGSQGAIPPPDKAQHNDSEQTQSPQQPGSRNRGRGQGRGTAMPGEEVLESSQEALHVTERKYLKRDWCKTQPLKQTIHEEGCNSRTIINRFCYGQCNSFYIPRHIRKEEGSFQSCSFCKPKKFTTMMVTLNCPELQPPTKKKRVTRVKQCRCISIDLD
Procedure: Antibodies were screened using the Hek-Id1 reporter gene assay described in Example 3 and by measuring SMAD phosphorylation. SMAD1, 5 and 8 are phosphorylated upon BMP signalling. Inhibitors of Gremlin-1 therefore increase SMAD phosphorylation.
SMAD phosphorylation assays were conducted on A549 cells or on human lung fibroblasts. Phosphorylation levels were determined using MSD.
Results are shown as a percentage of SMAD phosphorylation by BMP alone (control BMP). Experiments were performed using lung fibroblasts from idiopathic pulmonary fibrosis patients. rhGremlin-1 and the anti-Gremlin-1 antibodies were preincubated for 45 minutes at room temperature. rhGremlin-1 and the anti-Gremlin-1 antibodies were then added with BMP to the cells for 30 minutes.

[2] = system: mouse intestinal crypts; test: Mouse intestinal organoid culture; assay type: cell-based; conditions: 1 mg/ml antibody added to fully supplemented EGR media
Source text: Culture of mouse intestinal crypts. Mouse intestinal crypts were isolated and cultured as described by Sato et al (6). In brief, crypts were isolated, resuspended in Matrigel (BD Biosciences) and plated out in 24-well plates. The basal culture medium (advanced Dulbecco's modified Eagle medium/F12 supplemented with penicillin/streptomycin, 10 mmol/L HEPES, Glutamax, 1×N2, 1×B27 (all from Invitrogen), and 1 mmol/L N-acetylcysteine (Sigma)) was overlaid containing the following growth factors; Epidermal Growth Factor at 50 ng/ml (Life Technologies), Gremlin1 at 100 ng/ml (R and D), R-spondin1 at 500 ng/ml (R and D) [EGR media]. Anti-Grem1 antibody (UCB) was used at a concentration of 1 mg/ml. The media was changed every two days.
A mouse organoid culture was used to assess effects of an anti-GREM1 antibody. Successful intestinal epithelial organoid culture is dependent on media supplementation of exogenous BMP antagonist.
Approximately 60% of crypts formed organoids in media fully supplemented with recombinant epidermal growth factor (E), Grem1 (G) and R-Spondin1, (R) (EGR media). Culture success rate dropped to less than 2% at 7 days in media lacking recombinant Grem1 (ER media).

[3] = system: intestinal epithelial pSMAD1,5 signalling; test: Western blot of intestinal epithelial pSMAD1,5 in treated Vil1-Grem1 animals; assay type: in vivo, mouse
Procedure: Western blotting. Isolation of colon epithelium cells was carried out by incubating a 2 cm long piece of tissue with 30 mM EDTA for 2 h with agitation at 4° C. Pelleted epithelial cells were lysed RIPA lysis buffer with the addition of protease inhibitors (Complete Mini, Roche) and phosphatase inhibitors (PhosSTOP, Roche). All lysates were quantified using the BCA assay (Thermo Scientific), […] was diluted in an appropriate amount of 4× loading dye (Invitrogen) and denatured at 95° C. for 5 minutes. Western blotting was done with the NuPAGE Gel system, (Invitrogen) according to manufacturer's protocol. Briefly, denatured lysates were loaded onto a 4-12% gel and run at 100 V for at least 2 hours. The gels were transferred onto PVDF membrane (Immobilon P, Millipore) in a semi-dry tank (120 mA for at least 2 hours) and blocked by incubating for 1 hour at room temperature in TBS containing 10% milk (Marvel). […] After further washes, the blots were incubated in ECL reagents (GE healthcare) and chemiluminescence was detected by chemiluminescence film (GE Healthcare).
Epithelial BMP activity can be measured by phosphorylation of the SMAD 1,5,8 intracellular signalling transducers.
The aberrant epithelial Grem1 expression in Vil1-Grem1 mice suppressed physiological intestinal BMP pathway activity with reduction in detected pSMAD1,5 protein levels detected by Western blot.

[4] = system: 5TGM1.Bmx1 MM PCs; test: 5TGM1/KaLwRij mouse model of multiple myeloma, antibody prior to tumour cell inoculation; assay type: in vivo
Procedure: Targeting Grem1 prior to tumour cell inoculation in an immunocompetent murine model of systemic MM: C57BL/KaLwRij mice (6-8-week-old) were administered two doses of 30 mg/kg Grem1-neutralising antibody Ab7326 or IgG control Ab101.4 (UCB-Pharma, UK) by subcutaneous (s.c.) injection three days and one day prior to tumour inoculation. At Day 0, mice were inoculated with 5×10^5 5TGM1.Bmx1 cells via tail vein injection. Mice continued to receive either 30 mg/kg Grem1-neutralising antibody Ab7326 or IgG control Ab101.4 (UCB-Pharma, UK) by s.c. injection every 3 days for the duration of the 4-week model. Tumour burden was monitored weekly by BLI as previously described. At the end of the experiment, blood was collected by tail bleed, centrifuged at 2100 g for 10 min and serum collected. Serum paraprotein levels were analysed using the Hydragel 30 β1β2 kit (Sebia Electrophoresis, Georgia, USA) according to the manufacturer's instructions. The band corresponding to paraprotein was quantitated relative to serum albumin levels. (SAHMRI Animal Ethics SAM165)

Substance: Ab7326: allosteric inhibitory anti-Gremlin-1 antibody from a naïve human library; CDRs SEQ ID NOS 4 to 9; mouse IgG1 in mouse experiments
- Restoration of p-SMAD signalling, percentage of SMAD phosphorylation by BMP alone ([1]; BMP 2 50 ng/ml): 107.2%
- Restoration of p-SMAD signalling, percentage of SMAD phosphorylation by BMP alone ([1]; BMP 4 25 ng/ml): 110.0%
- Restoration of p-SMAD signalling, percentage of SMAD phosphorylation by BMP alone ([1]; BMP4/7 50 ng/ml): 127.0%
- Restoration of p-SMAD signalling, percentage of SMAD phosphorylation by BMP alone ([1]; BMP 7 200 ng/ml): 108.0%
- Restoration of p-SMAD signalling, percentage of SMAD phosphorylation by BMP alone ([1]; BMP-2/7 50 ng/ml): 128.5%
- Intestinal organoid culture success [2]: prevented successful intestinal organoid culture
- Restoration of intestinal epithelial pSMAD1,5 signalling ([3]; 10 mg/kg weekly subcutaneous): not
- Restoration of intestinal epithelial pSMAD1,5 signalling ([3]; 30 mg/kg weekly subcutaneous): able to restore
- Reduction in tumour burden (BLI) ([4]; 30 mg/kg s.c. from three days prior to inoculation, 4-weeks post-tumour cell inoculation, vs IgG control): approximately 75%
- Tumour burden in the hindlimb bones (BLI) ([4]; antibody prior to tumour cell inoculation, vs IgG control): significant reduction
- Additional reduction in overall tumour burden compared with treatment following tumour cell inoculation ([4]; end of the study): 25%
- Splenic tumour burden ([4]; pre-tumour cell inoculation group): downwards trend
- M-spike intensity relative to serum albumin (SPEP) ([4]; week 4, vs IgG control): significantly lower
